# Test results published in patent publication US11390591B2, “2,4,6-trisubstituted s-triazine compound, preparation method therefor, and use thereof” (Aluda Pharmaceuticals, Inc., priority 2016, dated 2022).
# Like-named read-outs stand apart in the source and are kept apart here.
# How the values were obtained:
# Assay type in all cases: cell-based
# [1] = tested on: cell lines of human non-small cell lung cancer (H522); assay: In vitro antineoplastic activity, MTT experiment, H522; details: H522 cells, 48 hours, highest concentration tested 31.6 μM (>30: inhibition rate <50%)
# Protocol: (§1) MTT, RPM1640 culture medium, fetal bovine serum, 96-well plate, CO2 thermostatic incubator, American BIO-RAD680 microplate reader, cell lines of human non-small cell lung cancer (H522), and cell lines of human brain glioma (U87) were all obtained commercially.
# (§2) (1) Cell inoculation: A single cell suspension was prepared with culture media supplemented with 10% fetal bovine serum, plated into a 96-well plate with 5000 cells per well, each well having a volume of 100 μL, and cultured overnight.
# (§3) (2) Preparation of compound solutions: a DMSO stock solution of a compound was diluted on a sterile bench with a culture medium into 5 concentrations to be tested, wherein a double dilution was employed between two adjacent concentrations.
# (§4) (3) The compound solutions of various concentrations were added into the 96-well plate cultured overnight, with 100 μL added per well, triplicated wells for each concentration. Since the peripheral wells can have edge effect and are susceptible to contamination, no cells or compounds were added thereto; instead, 100 μL culture solution was added as a blank. Additionally, 100% wells were set to contain the cells and 100 μL culture media without any compound. The plates were incubated in a thermostatic incubator at 37° C. for 48 hours.
# (§5) (4) Staining: 10 μL MTT solution (5 mg/mL, prepared with PBS) was added into the 96-well plate for staining. After incubation for 4 hours, centrifugation was performed at 2500 rpm for 10 minutes. Then, a multiple pipette was used to suck the culture solution out of the wells carefully without sucking out the cells while the pipette tip faced downward. 150 μL DMSO was added and shaken on a shaker for 5-10 minutes. Crystals were allowed to dissolve fully, and an OD value for each well was measured using the microplate reader at 570 nm. The inhibition rate was calculated as follows: Inhibition rate (%)=(average OD value of 100% wells−average OD value of compound wells)/(average OD value of 100% wells−average OD value of blank wells)×100%
# [2] = tested on: cell lines of human brain glioma (U87); assay: In vitro antineoplastic activity, MTT experiment, U87
# Protocol: as §1, §2, §3, §4, §5
# human glioma U87 cells = assay: Tumor cell vacuolization (methuosis) scoring, U87; design: key to Vacuolation Score: 5 scores were given when obvious vacuolization occurred at 10 nM; 4 scores at 31.6 nM; 3 scores at 100 nM; 2 scores at 316 nM; 1 score at 1000 nM; 0 score was given if no vacuolation occurred at any concentration; details: U87 cells, 0.01-3.160 μM, 96 hours, microscope
# Protocol: FIG. 2. Vacuolization of tumor cells. 100 microliter culture medium (RPMI1640, 2 mmol glutamine, 10% fetal bovine serum) containing 10^3 human colon adenocarcinoma cells (HCT15) or human brain glioma cells (U87) and a solvent DMSO control or 100 nM #40 compound (L16) was plated into a 96-well cell culture plate, and cell morphological image was taken under a phase contrast microscope after cultured at 5% CO2 and 37° C. for 96 hours.
# Some cells gradually became round and eventually bursted. These changes are consistent with the features of cell death by methuosis (FIG. 2).
# In order to compare the ability of different compounds to cause cell vacuolization, 100 μL culture media (RPMI1640, 2 mmol glutamine, 10% fetal bovine serum) comprising 10^3 human glioma U87 cells and final concentrations of 0.01, 0.0316, 0.1, 0.316, 1.0, 3.160 μM respectively of the compounds to be tested were inoculated into a 96-well culture plate. After cultured at 5% CO2 and 37° C. for 96 hours, cell morphology was observed under a high-magnification microscope, and the ability of the compounds to cause cell vacuolization was scored. 5 scores were given when obvious vacuolization occurred at 10 nM, 4 scores at 31.6 nM, 3 scores at 100 nM, 2 scores at 316 nM, 1 score at 1000 nM, and 0 score was given if no vacuolation occurred at any concentration.
# [3] = U87 cells, MTT, 48 hours, highest concentration tested 31.6 μM, read-out: IC50(μM) U87
# [4] = ability to inhibit cell proliferation, U87 (FIG. 3), unit inferred, read-out: IC50
IC50 [1] [µM],"IC50 [2, 3] [µM]","IC50 [2, 4] [µM]","IC50 ([2]; Homo sapiens, ability to inhibit cell proliferation, U87 (FIG. 3), unit inferred, read-out: IC50) [µM]",SMILES,Vacuolation Score (human glioma U87 cells)
1.44 ± 0.1,1 ± 0.06,1,–,"O=C(Nc1ccc(Cl)cc1)Nc1cccc(Nc2nc(/C=C/c3ccccc3)nc(N3CCOCC3)n2)c1 [L23, (E)-1-(4-chlorophenyl)-3-(3-(4-(morpholin-1-yl)-6-styrenyl-1,3,5-triazinyl-2-amino)phenyl)urea]",0
4.31 ± 0.09,1.3 ± 0.05,1.9,–,"CCN(CC)CCNC(=O)c1ccc(NC(=O)Nc2ccc(Nc3nc(/C=C/c4ccccc4)nc(N4CCOCC4)n3)cc2)cc1 [L33, (E)-N-(2-(diethylamino)ethyl)-4-(3-(4-(4-(morpholin-1-yl)-6-styrenyl-1,3,5-triazinyl-2-amino)phenyl)urea)benzamide]",3.5
1.27 ± 0.08,1.32 ± 0.22,1.33,–,"O=C(Nc1ccc(Cl)cc1)Nc1ccc(Nc2nc(/C=C/c3cccc([N+](=O)[O-])c3)nc(N3CC(O)C3)n2)cc1 [L22, (E)-1-(4-chlorophenyl)-3-(4-(4-(3-hydroxyazetidin-1-yl)-6-(3-nitrostyrenyl)-1,3,5-triazinyl-2-amino)phenyl)urea]",0
5.03 ± 0.89,3.32 ± 0.45,3.28,–,"O=C(Nc1ccc(Cl)cc1)Nc1ccc(Nc2nc(/C=C/c3ccccc3)nc(N3CC(O)C3)n2)cc1 [L5, (E)-1-(4-chlorophenyl)-3-(4-(4-(3-hydroxyazetidin-1-yl)-6-styrenyl-1,3,5-triazinyl-2-amino)phenyl)urea]",0
0.3 ± 0.03,2.5 ± 0.08,2.5,–,"O=C(Nc1ccc(F)cc1)Nc1ccc(Nc2nc(/C=C/c3ccc(Cl)cc3)nc(N3CCOCC3)n2)cc1 [L11, (E)-1-(4-fluorophenyl)-3-(4-(4-(morpholin-1-yl)-6-(4-chlorostyrenyl)-1,3,5-triazinyl-2-amino)phenyl)urea]",2 (2 scores at 316 nM)
1.53 ± 0.22,1.49 ± 0.22,1.5,–,"CN1CCN(c2nc(/C=C/c3cccc([N+](=O)[O-])c3)nc(Nc3cccc(NC(=O)Nc4ccc(Cl)cc4)c3)n2)CC1 [L28, (E)-1-(4-chlorophenyl)-3-(3-(4-(4-methylpiperazin-1-yl)-6-(3-nitrostyrenyl)-1,3,5-triazinyl-2-amino)phenyl)urea]",0
4.03 ± 0.65,4.4 ± 0.88,4.4,–,"CN1CCN(c2nc(/C=C/c3ccccc3)nc(Nc3cccc(NC(=O)Nc4ccc(Cl)cc4)c3)n2)CC1 [L24, (E)-1-(4-chlorophenyl)-3-(3-(4-(4-methylpiperazin-1-yl)-6-styrenyl-1,3,5-triazinyl-2-amino)phenyl)urea]",0
5.19 ± 1.48,0.55 ± 0.05,0.82,–,"O=C(Nc1ccc(Nc2nc(/C=C/c3ccccc3)nc(N3CCOCC3)n2)cc1)Nc1ccc(C(=O)NCCN2CCOCC2)cc1 [L37, (E)-N-(2-(morpholin-1-yl)ethyl)-4-(3-(4-(4-(morpholin-1-yl)-6-styrenyl-1,3,5-triazinyl-2-amino)phenyl)urea)benzamide]",3.5

# The remaining lines, values behind:
SMILES,IC50 [1] [µM],"IC50 [2, 3] [µM]","IC50 [2, 4] [µM]","IC50 ([2]; Homo sapiens, ability to inhibit cell proliferation, U87 (FIG. 3), unit inferred, read-out: IC50) [µM]",Vacuolation Score (human glioma U87 cells)
"CN(C)c1nc(/C=C/c2cccc([N+](=O)[O-])c2)nc(Nc2ccc(NC(=O)Nc3ccc(Cl)cc3)cc2)n1 [L20, (E)-1-(4-chlorophenyl)-3-(4-(4-dimethylamino-6-(3-nitrostyrenyl)-1,3,5-triazinyl-2-amino)phenyl)urea]",5.55 ± 0.4,5.12 ± 0.28,5.12,–,0
"CN1CCN(c2nc(/C=C/c3cccc(Cl)c3)nc(Nc3ccc(NC(=O)Nc4ccc(Cl)cc4)cc3)n2)CC1 [L8, (E)-1-(4-chlorophenyl)-3-(4-(4-(4-methylpiperazin-1-yl)-6-(3-chlorostyrenyl)-1,3,5-triazinyl-2-amino)phenyl)urea]",1.82 ± 0.09,1.21 ± 0.16,1.21,–,0
"O=C(Nc1ccc(Nc2nc(/C=C/c3ccc(Cl)cc3)nc(N3CCOCC3)n2)cc1)Nc1cccc(F)c1 [L12, (E)-1-(3-fluorophenyl)-3-(4-(4-(morpholin-1-yl)-6-(4-chlorostyrenyl)-1,3,5-triazinyl-2-amino)phenyl)urea]",2.55 ± 0.12,4.41 ± 0.43,4.43,–,2 (2 scores at 316 nM)
"CN1CCN(c2nc(/C=C/c3ccc(Cl)cc3)nc(Nc3ccc(NC(=O)Nc4ccc(F)cc4)cc3)n2)CC1 [L14, (E)-1-(4-fluorophenyl)-3-(4-(4-(4-methylpiperazin-1-yl)-6-(4-chlorostyrenyl)-1,3,5-triazinyl-2-amino)phenyl)urea]",5.03 ± 0.49,2.48 ± 0.11,2.48,–,0
"O=C(Nc1ccc(F)cc1)Nc1ccc(Nc2nc(/C=C/c3cccc([N+](=O)[O-])c3)nc(N3CCOCC3)n2)cc1 [L17, (E)-1-(4-fluorophenyl)-3-(4-(4-(morpholin-1-yl)-6-(3-nitrostyrenyl)-1,3,5-triazinyl-2-amino)phenyl)urea]",> 30,1.11 ± 0.1,1.19,–,3.5
"O=C(Nc1ccc(Cl)cc1)Nc1ccc(Nc2nc(/C=C/c3ccc(Cl)cc3)nc(N3CCOCC3)n2)cc1 [L10, (E)-1-(4-chlorophenyl)-3-(4-(4-(morpholin-1-yl)-6-(4-chlorostyrenyl)-1,3,5-triazinyl-2-amino)phenyl)urea]",2.18 ± 0.23,4.92 ± 0.16,4.92,–,3 (3 scores at 100 nM)
"CN1CCN(c2nc(/C=C/c3ccc(Cl)cc3)nc(Nc3ccc(NC(=O)Nc4ccc(Cl)cc4)cc3)n2)CC1 [L13, (E)-1-(4-chlorophenyl)-3-(4-(4-(4-methylpiperazin-1-yl)-6-(4-chlorostyrenyl)-1,3,5-triazinyl-2-amino)phenyl)urea]",0.87 ± 0.08,2.04 ± 0.09,2.04,–,0
"CN(C)CCNC(=O)c1ccc(NC(=O)Nc2ccc(Nc3nc(/C=C/c4ccccc4)nc(N4CCOCC4)n3)cc2)cc1 [L32, (E)-N-(2-(dimethylamino)ethyl)-4-(3-(4-(4-(morpholin-1-yl)-6-styrenyl-1,3,5-triazinyl-2-amino)phenyl)urea)benzamide]",5.03 ± 0.4,2.48 ± 0.44,2.8,–,4.5
Cl.O=C(Nc1ccc(Cl)cc1)Nc1ccc(Nc2nc(/C=C/c3cccc([N+](=O)[O-])c3)nc(N3CCOCC3)n2)cc1 [compound 68],–,–,–,3.28,4 (4 scores at 31.6 nM)
"CN1CCN(c2nc(/C=C/c3cccc(Cl)c3)nc(Nc3ccc(NC(=O)Nc4ccc(F)cc4)cc3)n2)CC1 [L9, (E)-1-(4-fluorophenyl)-3-(4-(4-(4-methylpiperazin-1-yl)-6-(3-chlorostyrenyl)-1,3,5-triazinyl-2-amino)phenyl)urea]",3.88 ± 0.65,1.47 ± 0.12,1.47,–,2 (2 scores at 316 nM)
"O=C(Nc1ccc(Cl)cc1)Nc1ccc(Nc2nc(/C=C/c3cccc(Cl)c3)nc(N3CCOCC3)n2)cc1 [L6, (E)-1-(4-chlorophenyl)-3-(4-(4-(morpholin-1-yl)-6-(3-chlorostyrenyl)-1,3,5-triazinyl-2-amino)phenyl)urea]",5.25 ± 0.45,3.63 ± 0.11,3.63,–,4 (4 scores at 31.6 nM)
"O=C(Nc1ccc(Nc2nc(/C=C/c3ccccc3)nc(N3CCOCC3)n2)cc1)Nc1ccc(C(=O)O)cc1 [compound 14, (E)-1-(4-carboxyphenyl)-3-(4-(4-(morpholin-1-yl)-6-styrenyl-1,3,5-triazinyl-2-amino)phenyl)urea]",–,–,–,–,1.5
